Measured values: ChEMBL document CHEMBL5584214, “Design of MERS-CoV entry inhibitory short peptides based on helix-stabilizing strategies” (Bioorg Med Chem Lett, 2024)
Non-standard residues stand in square brackets, D forms with d. Residues, ends and D or L forms follow the SMILES beside them. *: point of attachment. PEG12 = NCCOCCOCCOCCOCCOCCOCCOCCOCCOCCOCCOCCOCCC(=O)O; Palmitoyl = CCCCCCCCCCCCCCCC(=O)*; Octanoyl = CCCCCCCC(=O)*; AEEA = NCCOCCOCC(=O)O; Aib = CC(C)(N)C(=O)O

test: Inhibition of MERS-CoV Spike glycoprotein mediated cell-cell fusion; design: species or system Middle East respiratory syndrome-related coronavirus

Structure (SMILES)	EC50 [µM]
CSCC[C@H](NC(=O)[C@H](CCC(=O)O)NC(=O)[C@H](Cc1ccc(O)cc1)NC(=O)[C@@H](NC(=O)[C@H](CC(C)C)NC(=O)[C@H](CC(=O)O)NC(=O)[C@H](CC(C)C)NC(C)=O)[C@@H](C)O)C(=O)N[C@@H](CC(C)C)C(=O)N[C@@H](CO)C(=O)N[C@@H](CC(C)C)C(=O)N[C@@H](CCC(N)=O)C(=O)N[C@@H](CCC(N)=O)C(=O)N[C@H](C(=O)N[C@H](C(=O)N[C@@H](CCCCN)C(=O)N[C@@H](C)C(=O)N[C@@H](CC(C)C)C(=O)N[C@@H](CC(N)=O)C(=O)N[C@@H](CCC(=O)O)C(=O)N[C@@H](CO)C(=O)N[C@@H](Cc1ccc(O)cc1)C(N)=O)C(C)C)C(C)C	> 50
CSCC[C@H](NC(=O)C(C)(C)NC(=O)[C@H](Cc1ccc(O)cc1)NC(=O)[C@H](CCC(=O)O)NC(=O)[C@H](CC(C)C)NC(=O)C(C)(C)NC(=O)[C@H](CC(C)C)NC(C)=O)C(=O)N[C@@H](CCCCN)C(=O)N[C@@H](CO)C(=O)N[C@@H](CC(C)C)C(=O)N[C@@H](CCC(N)=O)C(=O)N[C@@H](CCC(N)=O)C(=O)N[C@H](C(=O)N[C@H](C(=O)N[C@@H](CCCCN)C(=O)N[C@@H](C)C(=O)N[C@@H](CC(C)C)C(=O)N[C@@H](CC(N)=O)C(=O)N[C@@H](CCC(=O)O)C(=O)N[C@@H](CO)C(=O)N[C@@H](Cc1ccc(O)cc1)C(N)=O)C(C)C)C(C)C	14.8
CSCC[C@H](NC(=O)[C@H](CCC(=O)O)NC(=O)[C@H](Cc1ccc(O)cc1)NC(=O)[C@@H](NC(=O)[C@H](CC(C)C)NC(=O)[C@H](CC(=O)O)NC(=O)[C@H](CC(C)C)NC(C)=O)[C@@H](C)O)C(=O)N[C@@H](CC(C)C)C(=O)N[C@@H](CO)C(=O)N[C@@H](CC(C)C)C(=O)N[C@@H](CCC(N)=O)C(=O)N[C@@H](CCC(N)=O)C(=O)N[C@H](C(=O)N[C@H](C(=O)NC(C)(C)C(=O)N[C@@H](C)C(=O)N[C@@H](CC(C)C)C(=O)N[C@@H](CC(N)=O)C(=O)NC(C)(C)C(=O)N[C@@H](CO)C(=O)N[C@@H](Cc1ccc(O)cc1)C(N)=O)C(C)C)C(C)C	3.04
CSCC[C@H](NC(=O)[C@H](CCC(=O)O)NC(=O)C(C)(C)NC(=O)[C@@H](NC(=O)[C@H](CC(C)C)NC(=O)[C@H](CC(=O)O)NC(=O)C(C)(C)NC(C)=O)[C@@H](C)O)C(=O)N[C@@H](CC(C)C)C(=O)N[C@@H](CO)C(=O)N[C@@H](CC(C)C)C(=O)N[C@@H](CCC(N)=O)C(=O)N[C@@H](CCC(N)=O)C(=O)N[C@H](C(=O)N[C@H](C(=O)N[C@@H](CCCCN)C(=O)N[C@@H](C)C(=O)N[C@@H](CC(C)C)C(=O)N[C@@H](CC(N)=O)C(=O)N[C@@H](CCC(=O)O)C(=O)N[C@@H](CO)C(=O)N[C@@H](Cc1ccc(O)cc1)C(N)=O)C(C)C)C(C)C	> 50
CSCC[C@H](NC(=O)C(C)(C)NC(=O)[C@H](Cc1ccc(O)cc1)NC(=O)[C@@H](NC(=O)[C@H](CC(C)C)NC(=O)C(C)(C)NC(=O)[C@H](CC(C)C)NC(C)=O)[C@@H](C)O)C(=O)N[C@@H](CC(C)C)C(=O)N[C@@H](CO)C(=O)N[C@@H](CC(C)C)C(=O)N[C@@H](CCC(N)=O)C(=O)N[C@@H](CCC(N)=O)C(=O)N[C@H](C(=O)N[C@H](C(=O)N[C@@H](CCCCN)C(=O)N[C@@H](C)C(=O)N[C@@H](CC(C)C)C(=O)N[C@@H](CC(N)=O)C(=O)N[C@@H](CCC(=O)O)C(=O)N[C@@H](CO)C(=O)N[C@@H](Cc1ccc(O)cc1)C(N)=O)C(C)C)C(C)C	2.33
CSCC[C@H](NC(=O)[C@H](CCC(=O)O)NC(=O)C(C)(C)NC(=O)[C@@H](NC(=O)[C@H](CC(C)C)NC(=O)[C@H](CC(=O)O)NC(=O)[C@H](CC(C)C)NC(C)=O)[C@@H](C)O)C(=O)N[C@@H](CC(C)C)C(=O)NC(C)(C)C(=O)N[C@@H](CC(C)C)C(=O)N[C@@H](CCC(N)=O)C(=O)N[C@@H](CCC(N)=O)C(=O)N[C@H](C(=O)N[C@H](C(=O)N[C@@H](CCCCN)C(=O)N[C@@H](C)C(=O)N[C@@H](CC(C)C)C(=O)N[C@@H](CC(N)=O)C(=O)N[C@@H](CCC(=O)O)C(=O)N[C@@H](CO)C(=O)N[C@@H](Cc1ccc(O)cc1)C(N)=O)C(C)C)C(C)C	> 50
CSCC[C@H](NC(=O)[C@H](CCC(=O)O)NC(=O)[C@H](Cc1ccc(O)cc1)NC(=O)[C@@H](NC(=O)[C@H](CC(C)C)NC(=O)[C@H](CC(=O)O)NC(=O)[C@H](CC(C)C)NC(C)=O)[C@@H](C)O)C(=O)N[C@@H](CC(C)C)C(=O)N[C@@H](CO)C(=O)N[C@@H](CC(C)C)C(=O)N[C@@H](CCC(N)=O)C(=O)N[C@@H](CCC(N)=O)C(=O)N[C@H](C(=O)N[C@H](C(=O)N[C@@H](CCCCN)C(=O)N[C@@H](C)C(=O)N[C@@H](CC(C)C)C(=O)N[C@@H](CC(N)=O)C(=O)N[C@@H](CCC(=O)O)C(=O)N[C@@H](C)C(=O)N[C@@H](Cc1ccc(O)cc1)C(N)=O)C(C)C)C(C)C	6.67
CSCC[C@H](NC(=O)[C@H](CCC(=O)O)NC(=O)[C@H](Cc1ccc(O)cc1)NC(=O)C(C)(C)NC(=O)[C@H](CC(C)C)NC(=O)[C@H](CC(=O)O)NC(=O)[C@H](CC(C)C)NC(C)=O)C(=O)NC(C)(C)C(=O)N[C@@H](CO)C(=O)N[C@@H](CC(C)C)C(=O)N[C@@H](CCC(N)=O)C(=O)N[C@@H](CCC(N)=O)C(=O)N[C@H](C(=O)N[C@H](C(=O)N[C@@H](CCCCN)C(=O)N[C@@H](C)C(=O)N[C@@H](CC(C)C)C(=O)N[C@@H](CC(N)=O)C(=O)N[C@@H](CCC(=O)O)C(=O)N[C@@H](CO)C(=O)N[C@@H](Cc1ccc(O)cc1)C(N)=O)C(C)C)C(C)C	24.4
CSCC[C@H](NC(=O)[C@H](CCC(=O)O)NC(=O)[C@H](Cc1ccc(O)cc1)NC(=O)[C@@H](NC(=O)[C@H](CC(C)C)NC(=O)[C@H](CC(=O)O)NC(=O)[C@H](CC(C)C)NC(C)=O)[C@@H](C)O)C(=O)N[C@@H](CC(C)C)C(=O)N[C@@H](CO)C(=O)N[C@@H](CC(C)C)C(=O)N[C@@H](CCC(N)=O)C(=O)NC(C)(C)C(=O)N[C@H](C(=O)N[C@H](C(=O)N[C@@H](CCCCN)C(=O)NC(C)(C)C(=O)N[C@@H](CC(C)C)C(=O)N[C@@H](CC(N)=O)C(=O)N[C@@H](CCC(=O)O)C(=O)N[C@@H](CO)C(=O)N[C@@H](Cc1ccc(O)cc1)C(N)=O)C(C)C)C(C)C (Ac-LDLTYEMLSLQ[Aib]VVK[Aib]LNESY-NH2)	6.66
CSCC[C@H](NC(=O)[C@H](CCC(=O)O)NC(=O)[C@H](Cc1ccc(O)cc1)NC(=O)[C@@H](NC(=O)[C@H](CC(C)C)NC(=O)[C@H](CC(=O)O)NC(=O)[C@H](CC(C)C)NC(C)=O)[C@@H](C)O)C(=O)N[C@@H](CC(C)C)C(=O)N[C@@H](CO)C(=O)N[C@@H](CC(C)C)C(=O)NC(C)(C)C(=O)N[C@@H](CCC(N)=O)C(=O)N[C@H](C(=O)N[C@H](C(=O)NC(C)(C)C(=O)N[C@@H](C)C(=O)N[C@@H](CC(C)C)C(=O)N[C@@H](CC(N)=O)C(=O)N[C@@H](CCC(=O)O)C(=O)N[C@@H](CO)C(=O)N[C@@H](Cc1ccc(O)cc1)C(N)=O)C(C)C)C(C)C (Ac-LDLTYEMLSL[Aib]QVV[Aib]ALNESY-NH2)	2.55
CSCC[C@H](NC(=O)[C@H](CCC(=O)O)NC(=O)[C@H](Cc1ccc(O)cc1)NC(=O)[C@@H](NC(=O)[C@H](CC(C)C)NC(=O)[C@H](CC(=O)O)NC(=O)[C@H](CC(C)C)NC(C)=O)[C@@H](C)O)C(=O)N[C@@H](CC(C)C)C(=O)NC(C)(C)C(=O)N[C@@H](CC(C)C)C(=O)N[C@@H](CCC(N)=O)C(=O)N[C@@H](CCC(N)=O)C(=O)NC(C)(C)C(=O)N[C@H](C(=O)N[C@@H](CCCCN)C(=O)N[C@@H](C)C(=O)N[C@@H](CC(C)C)C(=O)N[C@@H](CC(N)=O)C(=O)N[C@@H](CCC(=O)O)C(=O)N[C@@H](CO)C(=O)N[C@@H](Cc1ccc(O)cc1)C(N)=O)C(C)C (Ac-LDLTYEML[Aib]LQQ[Aib]VKALNESY-NH2)	> 50
CSCC[C@H](NC(=O)C(C)(C)NC(=O)[C@H](Cc1ccc(O)cc1)NC(=O)[C@H](CCC(=O)O)NC(=O)[C@H](CC(C)C)NC(=O)C(C)(C)NC(=O)[C@H](CC(C)C)NC(C)=O)C(=O)N[C@@H](CCCCN)C(=O)N[C@@H](CO)C(=O)N[C@@H](CC(C)C)C(=O)N[C@@H](CCC(N)=O)C(=O)N[C@@H](CCC(=O)O)C(=O)N[C@H](C(=O)N[C@H](C(=O)N[C@@H](CCCCN)C(=O)N[C@@H](CCCCN)C(=O)N[C@@H](CC(C)C)C(=O)N[C@@H](CC(N)=O)C(=O)N[C@@H](CCC(=O)O)C(=O)N[C@@H](CO)C(=O)N[C@@H](Cc1ccc(O)cc1)C(N)=O)C(C)C)C(C)C (Ac-L[Aib]LEY[Aib]MKSLQEVVKKLNESY-NH2)	24
CSCC[C@H](NC(=O)C(C)(C)NC(=O)[C@H](Cc1ccc(O)cc1)NC(=O)[C@@H](NC(=O)[C@H](CC(C)C)NC(=O)C(C)(C)NC(=O)[C@H](CC(C)C)NC(C)=O)[C@@H](C)O)C(=O)N[C@@H](CC(C)C)C(=O)N[C@@H](CO)C(=O)N[C@@H](CC(C)C)C(=O)N[C@@H](CCC(N)=O)C(=O)N[C@@H](CCC(=O)O)C(=O)N[C@H](C(=O)N[C@H](C(=O)N[C@@H](CCCCN)C(=O)N[C@@H](CCCCN)C(=O)N[C@@H](CC(C)C)C(=O)N[C@@H](CC(N)=O)C(=O)N[C@@H](CCC(=O)O)C(=O)N[C@@H](CO)C(=O)N[C@@H](Cc1ccc(O)cc1)C(N)=O)C(C)C)C(C)C (Ac-L[Aib]LTY[Aib]MLSLQEVVKKLNESY-NH2)	3.62
CCCCCCCC(=O)NCCCC[C@H](NC(=O)COCCOCCNC(=O)[C@H](Cc1ccc(O)cc1)NC(=O)[C@H](CO)NC(=O)[C@H](CCC(=O)O)NC(=O)[C@H](CC(N)=O)NC(=O)[C@H](CC(C)C)NC(=O)[C@H](CCCCN)NC(=O)[C@H](CCCCN)NC(=O)[C@@H](NC(=O)[C@@H](NC(=O)[C@H](CCC(=O)O)NC(=O)[C@H](CCC(N)=O)NC(=O)[C@H](CC(C)C)NC(=O)[C@H](CO)NC(=O)[C@H](CC(C)C)NC(=O)[C@H](CCSC)NC(=O)C(C)(C)NC(=O)[C@H](Cc1ccc(O)cc1)NC(=O)[C@@H](NC(=O)[C@H](CC(C)C)NC(=O)C(C)(C)NC(=O)[C@H](CC(C)C)NC(C)=O)[C@@H](C)O)C(C)C)C(C)C)C(N)=O (Ac-L[Aib]LTY[Aib]MLSLQEVVKKLNESY[AEEA]K(Octanoyl)-NH2)	0.864
CCCCCCCCCCCCCCCC(=O)NCCCC[C@H](NC(=O)CCOCCOCCOCCOCCOCCOCCOCCOCCOCCOCCOCCOCCNC(=O)[C@H](Cc1ccc(O)cc1)NC(=O)[C@H](CO)NC(=O)[C@H](CCC(=O)O)NC(=O)[C@H](CC(N)=O)NC(=O)[C@H](CC(C)C)NC(=O)[C@H](CCCCN)NC(=O)[C@H](CCCCN)NC(=O)[C@@H](NC(=O)[C@@H](NC(=O)[C@H](CCC(=O)O)NC(=O)[C@H](CCC(N)=O)NC(=O)[C@H](CC(C)C)NC(=O)[C@H](CO)NC(=O)[C@H](CC(C)C)NC(=O)[C@H](CCSC)NC(=O)C(C)(C)NC(=O)[C@H](Cc1ccc(O)cc1)NC(=O)[C@@H](NC(=O)[C@H](CC(C)C)NC(=O)C(C)(C)NC(=O)[C@H](CC(C)C)NC(C)=O)[C@@H](C)O)C(C)C)C(C)C)C(N)=O (Ac-L[Aib]LTY[Aib]MLSLQEVVKKLNESY[PEG12]K(Palmitoyl)-NH2)	1.42
